According to publication PMC9653649 (Molecules, 2022):
pIC50: −log10 of the molar value.

How the values were obtained:
COX-2 = experiment: Western blot analysis of COX-2; type: cell-based; settings: versus untreated control
Text: (§1) The anti-inflammatory activities of compounds HI and HL were further confirmed by Western blotting analysis of COX-1/COX-2.
(§2) For validating the anti-inflammatory pathway at the protein expression level, we used the immunoblotting (Western blot) technique.

[1] = test system: Human Dermal Fibroblast (HDF) cell line; experiment: Cell viability using MTT assay; type: cell-based; settings: 24 h, 0.1-100 µM, read-out: IC50 against fibroblast cells
Protocol: The synthesized compounds were screened for their cytotoxic activities against fibroblast cell lines at different concentrations for 24 h using MTT assay. […] Human Dermal Fibroblast (HDF) cell line was bought from the American Type Culture Collection (ATCC; Minnesota, USAHB-8065). It was cultured in Park Memorial Institute (RPMI-1640) culture media with glutamine 2 mM (bio west, Nampa, cat. no. L0498-500), 10% fetal bovine serum (PAA, Pasching Austria, cat. no. A11-151) and penicillin with streptomycin 1% (Lonza, Verviers, Belgium, cat. no. DE17-602E). The HDF cells were grown in 50 cm^2 flask (Greinerbio-one GmbH Maybach-str. 272636 Frickenhausen, Germany) and preserved in a typical humidified incubator supplied with 5% CO2, 95% air at 37 °C (New Brunswick Scientific-Innova co-170). Cells were washed with cold phosphate-buffered saline, trypsinized, harvested and centrifuged to form cell pellets. The cultured HDFa were plated in 96 well microplates at a concentration of 5 × 10^4 cells per well 24 h before the MTT assay to allow microplate adherence. MTT Reagent was provided, prepared for use, and acquired from Biospes, China, Cat n#BAR1005-1. According to the manufacturer protocol, the cultured cells were presented with different concentrations of the assessed agents. 20 μL of MTT solution was filled with each well. For 4 h, the plate was kept at 37 °C. After incubation, 100 μL of formazan diluent buffer (Biospes, Chongqing, China, Cat n#BAR1005-1) was poured into each well. ELISA plate reader (Stat Fax 2200, Awareness Technologies, Palm City, FL, USA) measured color absorbance at 540 nm. Three readings were taken on three different days and averaged for each sample. At last, cell survival was determined according to the following equation: %cell survival=Asample/Acontrol×100% Acontrol is the absorbance of the cell culture after adding MTT and formazan buffer, but without treatment by any drug candidate. […] IC50 values were then calculated by curve-fitting involving non-linear regression. […]

COX-1 = experiment: Western blot analysis of COX-1; type: cell-based; settings: versus untreated control
Text: as §1, §2

human recombinant COX-2 = biological target: T1, human recombinant COX-2 (Homo sapiens, UniProt P35354); experiment: In vitro COX-2 isozyme inhibition assay (EIA/ELISA kit, Cayman); settings: for COX-2 SI (COX-1 IC50/COX-2 IC50): selectivity index
T1 sequence (P35354 18-604): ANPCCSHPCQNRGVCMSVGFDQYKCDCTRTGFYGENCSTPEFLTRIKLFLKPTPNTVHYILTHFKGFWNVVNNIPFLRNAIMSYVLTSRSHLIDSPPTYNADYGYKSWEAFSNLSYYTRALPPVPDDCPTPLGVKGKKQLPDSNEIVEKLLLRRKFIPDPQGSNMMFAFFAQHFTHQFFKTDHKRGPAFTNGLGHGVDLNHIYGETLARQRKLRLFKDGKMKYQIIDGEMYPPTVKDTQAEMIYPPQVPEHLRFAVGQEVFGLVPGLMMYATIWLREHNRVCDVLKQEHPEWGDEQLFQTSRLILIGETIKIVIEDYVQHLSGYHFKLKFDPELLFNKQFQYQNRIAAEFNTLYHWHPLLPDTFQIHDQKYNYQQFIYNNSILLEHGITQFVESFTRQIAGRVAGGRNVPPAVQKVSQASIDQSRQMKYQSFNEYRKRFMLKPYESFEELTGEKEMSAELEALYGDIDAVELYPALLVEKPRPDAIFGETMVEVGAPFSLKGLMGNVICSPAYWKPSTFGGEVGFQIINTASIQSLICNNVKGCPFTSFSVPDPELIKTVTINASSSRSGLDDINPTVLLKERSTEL

ovine COX-1 = biological target: T2, ovine COX-1 (Ovis aries, UniProt P05979); experiment: In vitro COX-1 isozyme inhibition assay (EIA/ELISA kit, Cayman)
T2 sequence (P05979 25-600): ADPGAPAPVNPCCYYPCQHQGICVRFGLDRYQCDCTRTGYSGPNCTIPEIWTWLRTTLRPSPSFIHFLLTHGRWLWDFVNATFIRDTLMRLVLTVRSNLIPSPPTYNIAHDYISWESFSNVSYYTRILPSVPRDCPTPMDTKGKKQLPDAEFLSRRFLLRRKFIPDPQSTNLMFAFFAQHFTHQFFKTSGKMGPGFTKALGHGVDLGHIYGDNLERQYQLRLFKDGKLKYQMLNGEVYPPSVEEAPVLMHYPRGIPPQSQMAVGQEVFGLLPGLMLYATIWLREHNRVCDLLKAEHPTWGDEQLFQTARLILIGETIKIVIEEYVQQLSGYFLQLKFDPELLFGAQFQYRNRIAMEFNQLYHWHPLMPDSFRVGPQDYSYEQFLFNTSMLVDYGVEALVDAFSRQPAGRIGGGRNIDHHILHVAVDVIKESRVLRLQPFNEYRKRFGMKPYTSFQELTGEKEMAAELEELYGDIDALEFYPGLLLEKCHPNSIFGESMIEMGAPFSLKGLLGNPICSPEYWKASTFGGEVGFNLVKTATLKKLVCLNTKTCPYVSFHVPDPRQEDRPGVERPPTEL

[2] = Solubility examined in various solvents; type: physicochemical; settings: organic solvents
Text: . H% = 7.46 (7.51); N% = 8.63 (8.55), calc. (found), respectively (Table 1).

Compound | melting point [°C] | COX-2 protein level by Western blot (COX-2) | pIC50 [1] | COX-1 protein level by Western blot (COX-1) | pIC50 (human recombinant COX-2) | COX-2 SI (COX-1 IC50/COX-2 IC50) (human recombinant COX-2) | pIC50 (ovine COX-1) | Solubility in solvents [2]
CC(C)Cc1ccc(C(C)C(=O)NN)cc1 (stereo not drawn) [HI, 2-(4-Isobutylphenyl) Propane Hydrazide] | 85 | downregulation | 5.41 | downregulation | 5.37 | 1.7 | 5.12 | 
CC(C)Cc1ccc(C(C)C(=O)NN=Cc2ccccc2O)cc1 (stereo not drawn) [HL] |  | downregulation | 5.38 | downregulation | 5.31 | 1.8 | 5.07 | soluble in DMSO, DMF, ethanol, methanol, and acetonitrile
CC(C)Cc1ccc(C(C)C(=O)O)cc1 (stereo not drawn) [Ibuprofen, reference compound] |  |  | 4.51 |  |  |  |  | 
